Assay results as given in patent US9770448B1, “Compositions and methods for treatment of Bowen's disease and related diseases” (priority 2016, dated 2017).

Key:
Bowen's disease = settings: Example 10 patient history; cited from earlier work
[1] = test system: HPV- laryngeal keratinocytes; assay: In vitro chloroquine-induced killing of laryngeal keratinocytes (HPV-); assay type: cell-based, human; settings: two days incubation, visual inspection for survival
Text: (§1) In addition to the foregoing examples, in vitro experimental data have been obtained which indicate that the compositions and methods of the present disclosure can be used in the treatment of recurrent respiratory papillomatosis (RRPRRP) disease, which is also known as laryngeal papillomatosis. RRP is caused by human papillomavirus (HPV), typically HPV6 and HPV11, and involves formation of generally nonmalignant tumors on the larynx or vocal chords, and can spread to the trachea, bronchi and lungs. HPV^+ and HPV^− laryngeal keratinocytes obtained from a recurrent respiratory papillomatosis patient were expanded on Mitomycin C-treated J2 3T3 feeder cell layers in E media with 10 uM Y27632 (ROCK inhibitor). These cells were then plated without feeder layers in 2.5 uM Y27632 and grown until they reached 90% confluency. At this point, fresh E media without Y27632 was added to the cells with increasing concentrations of chloroquine. Chloroquine concentrations used were 0 ug/ml, 2.5 ug/ml, 25 ug/ml, 250 ug/ml, 2.5 mg/ml and 25 mg/ml. Chloroquine powder (Sigma) was resuspended at 25 mg/ml in E media and was brought to pH 7 with 1N NaOH. Working dilutions were made with full E media. Cells were incubated for two days in chloroquine and then visually inspected for survival, as noted by (a) the presence of cells in the wells and (b) morphology of the cells.

[2] = test system: HPV+ laryngeal keratinocytes; assay: In vitro chloroquine-induced killing of laryngeal keratinocytes (HPV+); assay type: cell-based, human; settings: two days incubation, visual inspection for survival
Text: as §1

SMILES	Outcome of earlier over the counter drug as stated by patient (Bowen's disease)	Chloroquine concentration that cells survived [1] [µg/mL]	Chloroquine concentrations at which cells were killed [1] [µg/mL]	Chloroquine concentration that cells survived [2] [µg/mL]	Chloroquine concentrations at which cells were killed [2] [µg/mL]
O=C(O)C(Cl)(Cl)Cl [TCA, trichloroacetic acid]	made the Bowen's disease Lesion worse	–	–	–	–
CCN(CC)CCCC(C)Nc1ccnc2cc(Cl)ccc12 (racemic) [chloroquine, (RS)—N′-(7-chloroquinolin-4-yl)-N,N-diethyl-pentane-1,4-diamine]	–	25	≥ 250	25	≥ 250
